This test deals with T1, human muscarinic receptor subtype 1 (M1) (Homo sapiens, UniProt P11229).
T1 sequence (P11229 1-460): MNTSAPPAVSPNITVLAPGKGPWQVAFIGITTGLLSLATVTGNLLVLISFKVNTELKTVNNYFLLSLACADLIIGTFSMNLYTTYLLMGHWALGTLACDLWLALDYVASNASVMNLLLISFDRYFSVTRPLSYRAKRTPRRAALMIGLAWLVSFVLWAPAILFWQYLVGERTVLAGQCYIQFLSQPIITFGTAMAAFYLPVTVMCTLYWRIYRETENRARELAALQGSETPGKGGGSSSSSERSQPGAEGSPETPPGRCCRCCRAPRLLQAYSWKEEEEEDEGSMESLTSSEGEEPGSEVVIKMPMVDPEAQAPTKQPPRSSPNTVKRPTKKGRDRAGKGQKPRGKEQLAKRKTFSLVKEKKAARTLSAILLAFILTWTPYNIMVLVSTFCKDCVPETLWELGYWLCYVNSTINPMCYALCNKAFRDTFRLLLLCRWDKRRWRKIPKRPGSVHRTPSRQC
Nature of the test: Calcium mobilization assay in hM1-CHO cells, PAM activity with EC20 acetylcholine. It counts as cell-based. The note with it: for EC50: read-out: hM1 pEC50 ± SEM (converted). The protocol: page 2: Procedures for Biological Experiments Calcium mobilization assays: To measure the functional activity of positive allosteric modulator (PAM) compounds in a cellular assay, human or rat muscarinic receptor subtype 1 (M1) was stably expressed in the Chinese hamster ovary (CHO) cells to evoke an increase in intracellular calcium to an EC20 concentration of acetylcholine (ACh) agonist. The stable M1-CHO cells were cultured in F12 medium containing 10% fetal bovine serum, 20 mM HEPES, 100 units/mL antibiotics/antimycotic, 0.5 mg/ml G418. All reagents used were from Life Technologies (Carlsbad, CA) unless otherwise noted. Briefly, the day before the assay, stable M1-CHO cells (15,000 cells/20 μL/well) were plated in black-walled, clear-bottomed, 384 well plates (Greiner Bio-One, Monroe, NC) in the culture medium without G418, and then incubated overnight at 37 °C in the presence of 5% CO2. The next day, calcium assay buffer (Hank’s balanced salt solution (HBSS), 20 mM HEPES, 2.5 mM Probenecid, 4.16 mM sodium bicarbonate (Sigma-Aldrich, St. Louis, MO) was prepared to dilute […] calcium indicator dye. […] curves in DMSO using the Bravo Liquid Handler (Agilent, Santa Clara, CA), transferred to a 384 well daughter plates using an Echo acoustic liquid handler (Beckman Coulter, Indianapolis, Indiana), and diluted in assay Buffer to a 2X final concentration. The agonist plates were prepared using acetylcholine (ACh, Sigma-Aldrich, St. Louis, MO) concentrations for the EC20 and ECMAX responses by diluting in assay buffer to a 5X final concentration. The 2X dye solution (2.3 µM) was prepared by mixing a 2.3 mM Fluo-4-AM stock in DMSO with 10% (w/v) pluronic acid F- 127 in a 1:1 ratio in assay buffer. Using a microplate washer (BioTek, Winooski, VT), cells were washed with assay buffer for 3 times to remove medium. After the final wash, 20 μL of assay buffer remained in the cell plates. Immediately, 20 μL of the 2X dye solution (final 1.15 µM) was added to each well of the cell plate using a Multidrop Combi dispenser (Thermo Fisher, Waltham, MA). After cells were incubated with the dye solutions for 45 min at 37 °C in the presence of 5% CO2, the dye solutions were removed and replaced with assay buffer using a microplate washer, leaving 20 μL of assay buffer in the cell plate. The compound, agonist, and cell plates were placed inside the Functional Drug Screening System uCell (FDSS uCell, Hamamatsu, Japan) to measure the calcium flux. The triple add protocol was used to measure Ca kinetics; Compound, ACh for EC20, and ACh for ECMAX adds in an order. Briefly, after establishment of a fluorescence baseline S2 page 3: for 2 seconds (excitation, 480 nm; emission, 530 nm), first add occurred by adding 20 µL of test compound to the cells, and the response was measured for 140 seconds. This is followed by second add; 10 µL (5X) of an EC20 concentration of ACh agonist was added to the cells, and the response of the cells was measured for 125 seconds. Immediately, the third add occurred by adding 12 ul assay buffer or 5X of an EC max concentration of ACh and the response of the cells was measured for 90 seconds. Assay buffer was added to the wells that incubated with compounds followed by EC20 concentration of ACh. Agonists containing ECmax concentration of ACh were added to the wells that incubated with DMSO and assay buffer from the 1st and 2nd adds to measure maximum Ca responses (ECmax). Calcium fluorescence was recorded as fold over basal fluorescence and raw data were normalized to the maximal response to ACh agonist. […]

Consider `Cn1cc(-c2ccc(Cc3cc(C(=O)N[C@H]4CCOC[C@@H]4O)nn3C3CCCC3)cc2)cn1` [17g], for which the “hM1 %ACh Max ± SEM” value is 82 ± 3.4 %ACh Max and the EC50 was 427 nM.
Turning to `Cn1cc(-c2ccc(Cc3cc(C(=O)N[C@H]4CCCC[C@@H]4O)nn3C3CCCC3)cc2)cn1` [17k], the “hM1 %ACh Max ± SEM” value stood at 82 ± 4.4 %ACh Max and the EC50 was 589 nM.
